Read-outs that look alike come from different tables or passages of the source.
Experiments:
[1] = target: A. viridans PO (Aerococcus viridans, UniProt A9X9K8); test: A. viridans PO inhibitory activity assay (quinoneimine dye); format: biochemical
Experimental: A. viridans PO and horseradish peroxidase were purchased from Sigma. A. viridans PO activity was determined by monitoring appearance of quinoneimine dye at 550 nm using a microplate reader (CLARIOstar) and conducted as described[5] with some modifications. […] The reaction buffer (50 mM KH2PO4 and 10 mM MgCl2, pH 5.9) contained TPP at specified concentrations, 10 μM flavin adenine dinucleotide, 0.15% 4-aminoantipyrine, 0.3% N-ethyl-N-(2-hydroxy-3-sulfopropyl)-m-toluidine (EHSPT), 50 μg/mL horseradish peroxidase, and 0.35 U/mL A. viridans PO. The reaction mixture was preincubated at 37 °C with inhibitor for 30 min, and then the reaction was initiated by adding pyruvate to a final concentration of 50 mM. To determine the IC50, TPP concentration was set at 60 μM with varying inhibitor concentrations. One unit of PO activity is defined as the production of 1 μmol of hydrogen peroxide per minute. The IC50 values were calculated from nonlinear regression curve fitting using GraphPad Prism.
Enzyme inhibitory activity assays – methods and results (Figures S1-4) […]
The compound […]
A. viridans PO inhibitory activity assay. A. viridans PO and horseradish peroxidase were purchased from Sigma. A. viridans PO activity was determined by monitoring appearance of quinoneimine dye at 550 nm using a microplate reader (CLARIOstar) and conducted as described3 with some modifications. […]
buffer (50 mM KH2PO4 and 10 mM MgCl2, pH 5.9) contained TPP at specified concentrations, 10 µM flavin adenine dinucleotide (FAD), 0.15% 4-aminoantipyrine, 0.3% N-ethyl-N-(2-hydroxy-3-sulfopropyl)-m-toluidine (EHSPT), 50 µg/mL horseradish peroxidase and 0.35 U/mL A. viridans PO. The reaction mixture was preincubated at 37 °C with inhibitor for 30 min, then reaction was initiated by adding pyruvate to a final concentration of 50 mM. To determine the IC50, TPP concentration was set was set at 60 µM with varying inhibitor concentrations. One unit of PO activity is defined as the production of 1 μmol of hydrogen peroxide per minute. The IC 50 values were calculated from non-linear regression curve fitting using GraphPad Prism. […]

[2] = PAMPA (parallel artificial membrane permeability assay); format: in vitro ADME; conditions: for Papp at 10 h, 500 µM: PAMPA, read-out: PAMPA log Pe (converted); for Papp at 10 h, 500 µM / Fa (fraction absorbed): compounds at 500 µM, 5% DMSO in PBS pH 7.4, 10 hours, room temperature
Experimental: PAMPA – methods and results (Table S2)
PAMPA was carried out in 96-well microtiter filter plates obtained from Millipore as described1 with some modifications. Each well of the filter plate was impregnated with 15 µL of 5% hexadecane dissolved in hexane (i.e. total amount of hexadecane: 0.75 µL) for at least 10 minutes in ventilated environment to allow for complete evaporation of hexane. Donor compartments were filled with 200 µL compound-containing donor solutions of compounds dissolved in 5% DMSO, phosphate buffered saline PBS) and connected to acceptor plate prefilled with buffer (5% DMSO in PBS, pH 7.4). The resulting sandwich was incubated at room temperature under gentle shaking and wrapped in wet paper towels to avoid evaporation. After 10 hours, the sandwich was disassembled and the solutions in the acceptor and donor were transferred to a disposable UV-transparent plate. UV absorption was measured at wavelengths between 220 and 340 nm using a microplate reader (CLARIOstar).
Compounds were tested at 500 µM. Calibration to determine concentration of compounds were performed with varying compound concentrations in buffer (5% DMSO in PBS).
The artificial membrane permeability is expressed as fraction absorbed (Fa%)2 or log Pe (log of the effective permeability)1. LogD values at pH 7.4 were calculated using MarvinSketch.
Fa% = 100 ∙CA ∙VA / CD0 ∙ VD where: CA = final drug concentration in the acceptor well (µM)
VA = volume in the acceptor well (cm3)
CD0 = Initial drug concentration in the donor well (µM)
VD = volume in the donor well (cm3) log P (cm/s) = log -ln 1-CA/Cequilibrium
S = surface area (cm2), typically 0.268 cm2
Cequilibrium = theoretical equilibrium concentration = [CD ∙VD+CA ∙VA] / [VD+VA] where: CD = final drug concentration in the donor well (µM)
CA = final drug concentration in the acceptor well (µM)
Table S2. Permeability data.
Compounds Fa (%) PAMPA log Pe (cm/s) cLogD (pH = 7.4)

[3] = [Compound] = 250 μM, [TPP] = 50 μM
[4] = [Compound] = [TPP] = 250 μM; read-out: % Inhibition (1:1)
[5] = [TPP] = 60 µM; read-out: IC50 (μM ± SEM)
[6] = calculated from KM(TPP) 5 µM using [TPP]/IC50 = KM(TPP)/KI; read-out: KI
[7] = calculated from KM(TPP) 5 µM using [TPP]/IC50 = KM(TPP)/KI
[8] = read-out: IC50 (μM ± SEM); [TPP] = 60 µM

Chain of A. viridans PO (A9X9K8 entry or part of it): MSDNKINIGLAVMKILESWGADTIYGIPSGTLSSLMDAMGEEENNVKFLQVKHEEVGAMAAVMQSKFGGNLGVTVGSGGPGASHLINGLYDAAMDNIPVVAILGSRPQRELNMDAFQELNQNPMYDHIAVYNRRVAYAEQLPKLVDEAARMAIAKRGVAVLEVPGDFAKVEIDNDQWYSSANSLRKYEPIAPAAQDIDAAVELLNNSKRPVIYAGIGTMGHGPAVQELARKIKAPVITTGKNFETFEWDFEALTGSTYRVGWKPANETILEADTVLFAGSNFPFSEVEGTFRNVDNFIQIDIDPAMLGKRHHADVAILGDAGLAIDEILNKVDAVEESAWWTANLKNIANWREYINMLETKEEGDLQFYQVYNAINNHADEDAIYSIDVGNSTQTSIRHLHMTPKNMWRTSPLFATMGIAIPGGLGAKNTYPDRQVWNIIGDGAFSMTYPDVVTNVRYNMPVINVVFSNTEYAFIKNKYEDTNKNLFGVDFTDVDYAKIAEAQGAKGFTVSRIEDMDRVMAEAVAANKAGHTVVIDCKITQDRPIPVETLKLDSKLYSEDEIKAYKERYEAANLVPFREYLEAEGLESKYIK

| SMILES | % Inhibition (5:1) [1, 3] [%] | inhibition at 250 µM [1, 4] [%] | vs TPP: affinity of the compound relative to that of TPP (= [TPP]/IC50) ([1]; [TPP] = 60 µM) | IC50 [1, 5] [µM] | Ki [1, 6] [µM] | Papp at 10 h, 500 µM [2] [×10⁻⁶ cm/s] | Fa (fraction absorbed) [2] [%] | membrane permeability in PAMPA (in words) [2] | Ki [1, 7] [µM] | IC50 [1, 8] [µM] |
| --- | --- | --- | --- | --- | --- | --- | --- | --- | --- | --- |
| COC(=O)C(CCCc1cn(Cc2cnc(C)nc2N)nn1)C(=O)OC [13b] | 65 ± 5 | 29 ± 4 | 0.39 | 152 ± 24 | 13 | 6.31 | 42 | – | – | – |
| COC(=O)CCCCc1cn(Cc2cnc(C)nc2N)nn1 [15b] | 59 ± 3 | 24 ± 4 | 0.28 | 214 ± 31 | 18 | 6.31 | 44 | membrane-permeable | – | – |
| COC(=O)CCCc1cn(Cc2cnc(C)nc2N)nn1 [15a] | 52 ± 3 | 21 ± 4 | 0.22 | 274 ± 52 | 23 | 5.01 | 38 | membrane-permeable | – | – |
| Cc1ncc(Cn2cc(CCCC(=O)[O-])nn2)c(N)n1.[K+] [16a] | 59 ± 3 | 22 ± 5 | 0.30 | – | – | 0.398 | 3 | impermeable | 17 | 202 ± 34 |
| COC(=O)C(CCc1cn(Cc2cnc(C)nc2N)nn1)C(=O)OC [13a] | 62 ± 4 | 26 ± 4 | 0.32 | 189 ± 44 | 16 | 6.31 | 39 | membrane-permeable | – | – |
| Cc1ncc(Cn2cc(CCCCC(=O)[O-])nn2)c(N)n1.[K+] [16b] | 63 ± 3 | 28 ± 4 | 0.35 | – | – | 0.398 | 2 | impermeable | 14 | 171 ± 29 |
| Cc1ncc(Cn2cc(CCC(C(=O)[O-])C(=O)[O-])nn2)c(N)n1.[K+].[K+] [14a] | 76 ± 3 | 41 ± 3 | 0.69 | – | – | 0.316 | 2 | impermeable | 7.3 | 87 ± 11 |
| Cc1ncc(Cn2cc(CCCC(C(=O)[O-])C(=O)[O-])nn2)c(N)n1.[K+].[K+] [14b] | 85 ± 4 | 55 ± 4 | 1.22 | – | – | 0.158 | 1 | membrane-impermeable | 4.1 | 49 ± 7 |

Source: paper PMC11483378, “Triazole-Based Thiamine Analogues as Inhibitors of Thiamine Pyrophosphate-Dependent Enzymes: 1,3-Dicarboxylate for Metal Binding” (ACS Omega, 2024)
